Assay results reported in patent US8993565B2, “(6-oxo-1,6-dihydropyrimidin-2-yl)amide derivatives, preparation thereof and pharmaceutical use thereof as AKT(PKB) phosphorylation inhibitors” (Sanofi, priority 2009, dated 2015).
pIC50: −log10 of the molar value.

Assays:
[1] = system: AKT protein phosphorylated on serine 473 (pAKT-S473); assay: Study of pAKT expression in PC3 human prostate carcinoma cells measured by western blotting (Test A); assay type: cell-based; details: PC-3, inhibition of AKT phosphorylation (pAKT-S473), 1 to 2 hours incubation, absolute IC50, mean of two experiments
Protocol: The inhibitory activity of the molecules on AKT phosphorylation is measured either by western blotting using the technique described below, or by the MSD Multi-spot Biomarker detection technique from Meso Scale Discovery also described below.
Study of pAKT Expression in PC3 Human Prostate Carcinoma Cells Measured by Western Blotting (Test A):
On day 2, the cells are incubated in the presence or absence of the test products for 1 to 2 hours at 37° C. in the presence of 5% CO2. The molecules, diluted in dimethyl sulphoxide (DMSO Sigma #D2650), are added from a 10-times concentrated stock solution, the final percentage of DMSO being 0.1%. The molecules are tested either at a single concentration of less than or equal to 10 μM, or at increasing concentrations in a range that can extend from less than 1 nM to 10 μM.
After this incubation, the cells are lysed for the preparation of the proteins.
The lysate is centrifuged for 10 min at 6000 rpm. 155 μl of supernatant are recovered. 150 μl are incubated for denaturation for 5 min at 95° C. in the presence of 4× NuPAGE LDS Sample Buffer diluted 4-fold (InVitrogen ref NP0007) and of 10× NuPAGE Sample Reducing Agent diluted 10-fold (InVitrogen ref NP0009). These samples are then frozen at −20° C.
The gel is then transferred on to an Invitrolon PVDF membrane (Invitrogen #LC2007) permeabilised beforehand and for a few seconds in ethanol (Ethanol Fischer Scientific #E/0600DF/15).
The transfer is carried out in a Biorad tank at 30 volts overnight or at 60 volts for 3 hours, in the presence of 20× NUPAGE Transfer Buffer diluted 20-fold (InVitrogen ref NP0006).
The membrane is then saturated in saturating solution composed of TBS (10× Tris Buffered Saline, Sigma #T5912, diluted 10-fold), 0.1% Tween (Sigma #P5927) and 3% BSA (Bovine Albumin Serum Fraction V, Sigma #A4503) for 6 h after overnight transfer or else for 1 h after transfer for a period of 3 h.
Two rinses for min in washing solution composed of TBS and 0.1% Tween 20 are carried out before hybridisation of the secondary antibodies.
The secondary antibodies are diluted 110000th for the rabbit anti-Mouse IgG HRP antibody (W402 Promega) and to 110000th for the goat anti-Rabbit IgG HRP antibody (W401 Promega) in saturating solution, and then shaken for 1 h at ambient temperature.
Two rinses for 30 min in washing solution are carried out and then a rinse for 5 min in H2O is carried out in order to eliminate the remaining Tween 20.
The luminescence is read with the FujiFilm device (Ray Test).
The FUJI device measures the total luminescence signal obtained (AU) for each band selected. It then subtracts the background noise (BG) proportional to the size of the band selected (Area), said background noise being calculated from a specific background noise band, with a view to obtaining the specific signal (AU-BG) for each band. The band obtained in the absence of product and in the presence of 0.1% DMSO is considered to be the 100% signal. The software calculates the % specific activity (Ratio) obtained for each band selected as a function of this 100% signal. The percentage inhibition is calculated for each concentration according to the formula (100%−Ratio).
Two independent experiments make it possible to calculate the mean of the percentages of inhibition obtained at a given concentration for the products tested only at one concentration.
Two independent experiments make it possible to calculate the mean of the IC50s.

[2] = system: AKT protein phosphorylated on serine 473 (P-AKT-S473); assay: Study of pAKT expression in PC3 human prostate carcinoma cells measured by the MSD Multi-spot Biomarker Detection technique (Test B); assay type: cell-based; details: PC-3, inhibition of AKT phosphorylation (P-AKT-S473), MSD sandwich immunoassay, 1 to 2 h incubation, absolute IC50, mean of 2 experiments
How it was run: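 Lysate P-AKT-S473 quantified by MSD electrochemiluminescent sandwich immunoassay; inhibition vs DMSO and cell-free background, IC50 averaged over 2 experiments.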

| SMILES | pIC50 [1] | pIC50 [2] |
| --- | --- | --- |
| O=C(Cc1nc(N2CCOCC2)cc(=O)[nH]1)Nc1cccc(F)c1 [Example 14, N-(3-fluorophenyl)-2-[4-(morpholin-4-yl)-6-oxo-1,6-dihydropyrimidin-2-yl]acetamide] | 6.24 | 7.13 |
| Cc1cccc(NC(=O)Cc2nc(N3CCOCC3)cc(=O)[nH]2)c1 [Example 23, N-(3-methylphenyl)-2-[4-(morpholin-4-yl)-6-oxo-1,6-dihydropyrimidin-2-yl]acetamide] | 7.41 |  |
| N#Cc1cccc(NC(=O)Cc2nc(N3CCOCC3)cc(=O)[nH]2)c1 [Example 26, N-(3-cyanophenyl)-2-[4-(morpholin-4-yl)-6-oxo-1,6-dihydropyrimidin-2-yl]acetamide] | 5.64 |  |
| Cc1cc(NC(=O)Cc2nc(N3CCOCC3)cc(=O)[nH]2)ccc1F [Example 28, N-(4-fluoro-3-methylphenyl)-2-[4-(morpholin-4-yl)-6-oxo-1,6-dihydropyrimidin-2-yl]acetamide] | 6.77 |  |
| O=C(Cc1nc(N2CCOCC2)cc(=O)[nH]1)Nc1ccc(F)c(Cl)c1 [Example 29, N-(3-chloro-4-fluorophenyl)-2-[4-(morpholin-4-yl)-6-oxo-1,6-dihydropyrimidin-2-yl]acetamide] | 6.94 |  |
| O=C(Cc1nc(N2CCOCC2)cc(=O)[nH]1)Nc1cccc(O)c1 [Example 32, N-(3-hydroxyphenyl)-2-[4-(morpholin-4-yl)-6-oxo-1,6-dihydropyrimidin-2-yl]acetamide] | 5.44 |  |
| O=C(Cc1nc(N2CCOCC2)cc(=O)[nH]1)Nc1ccc(F)c(Br)c1 [Example 33, N-(3-bromo-4-fluorophenyl)-2-[4-(morpholin-4-yl)-6-oxo-1,6-dihydropyrimidin-2-yl]acetamide] | 7.03 |  |
| O=C(Cc1nc(N2CCOCC2)cc(=O)[nH]1)Nc1cc(F)c(F)c(F)c1 [Example 34, 2-[4-(morpholin-4-yl)-6-oxo-1,6-dihydropyrimidin-2-yl]-N-(3,4,5-trifluorophenyl)acetamide] | 6.22 |  |
| O=C(Cc1nc(N2CCOCC2)cc(=O)[nH]1)Nc1cccc(OC(F)F)c1 [Example 38, N-[3-(difluoromethoxy)phenyl]-2-[4-(morpholin-4-yl)-6-oxo-1,6-dihydropyrimidin-2-yl]acetamide] | 6.32 |  |
| COc1cc(NC(=O)C(C)c2nc(N3CCOCC3)cc(=O)[nH]2)ccc1F (stereo not drawn) [Example 39, N-(4-fluoro-3-methoxyphenyl)-2-[4-(morpholin-4-yl)-6-oxo-1,6-dihydropyrimidin-2-yl]propanamide] | 5.75 |  |
| Cc1cccc(NC(=O)Cc2nc(N3CCOCC3)cc(=O)[nH]2)c1C [Example 40, N-(2,3-dimethylphenyl)-2-[4-(morpholin-4-yl)-6-oxo-1,6-dihydropyrimidin-2-yl]acetamide] | 5.83 |  |
| Cc1cccc(NC(=O)Cc2nc(N3CCOCC3)cc(=O)[nH]2)c1F [Example 41, N-(2-fluoro-3-methylphenyl)-2-[4-(morpholin-4-yl)-6-oxo-1,6-dihydropyrimidin-2-yl]acetamide] | 6.54 | 7.22 |

Next, values leading:

| pIC50 [1] | pIC50 [2] | SMILES |
| --- | --- | --- |
| 6.40 | 6.83 | O=C(Cc1nc(N2CCOCC2)cc(=O)[nH]1)Nc1cccc2ocnc12 [Example 42, N-(1,3-benzoxazol-4-yl)-2-[4-(morpholin-4-yl)-6-oxo-1,6-dihydropyrimidin-2-yl]acetamide] |
| 6.26 |  | O=C(Cc1nc(N2CCOCC2)cc(=O)[nH]1)Nc1cccc(OC(F)(F)F)c1 [Example 43, 2-[4-(morpholin-4-yl)-6-oxo-1,6-dihydropyrimidin-2-yl]-N-[3-(trifluoromethoxy)phenyl]acetamide] |
| 6.51 |  | CC(C)Oc1cccc(NC(=O)Cc2nc(N3CCOCC3)cc(=O)[nH]2)c1 [Example 44, 2-[4-(morpholin-4-yl)-6-oxo-1,6-dihydropyrimidin-2-yl]-N-[3-(propan-2-yloxy)phenyl]acetamide] |
| 6.58 |  | COc1cc(F)ccc1NC(=O)Cc1nc(N2CCOCC2)cc(=O)[nH]1 [Example 45, N-(4-fluoro-2-methoxyphenyl)-2-[4-(morpholin-4-yl)-6-oxo-1,6-dihydropyrimidin-2-yl]acetamide] |
| 6.46 |  | O=C(Cc1nc(N2CCOCC2)cc(=O)[nH]1)Nc1ccc(F)c(C(F)(F)F)c1 [Example 47, N-[4-fluoro-3-(trifluoromethyl)phenyl]-2-[4-(morpholin-4-yl)-6-oxo-1,6-dihydropyrimidin-2-yl]acetamide] |
| 6.74 |  | C#Cc1cccc(NC(=O)Cc2nc(N3CCOCC3)cc(=O)[nH]2)c1 [Example 48, N-(3-ethynylphenyl)-2-[4-(morpholin-4-yl)-6-oxo-1,6-dihydropyrimidin-2-yl]acetamide] |
| 5.17 |  | O=C(Cc1nc(N2CCOCC2)cc(=O)[nH]1)Nc1ccc(F)cc1O [Example 50, N-(4-fluoro-2-hydroxyphenyl)-2-[4-(morpholin-4-yl)-6-oxo-1,6-dihydropyrimidin-2-yl]acetamide] |
| 6.88 |  | O=C(Cc1nc(N2CCOCC2)cc(=O)[nH]1)N1CCc2ccccc21 [Example 51, 2-[2-(2,3-dihydro-1 H-indol-1-yl)-2-oxoethyl]-6-(morpholin-4-yl)pyrimidin-4(3H)-one] |
| 6.64 |  | O=C(Cc1nc(N2CCOCC2)cc(=O)[nH]1)Nc1ccc(F)c(C2CC2)c1 [Example 52, N-(3-cyclopropyle-4-fluorophenyl)-2-[4-(morpholin-4-yl)-6-oxo-1,6-dihydropyrimidin-2-yl]acetamide] |
| 6.09 | 7.17 | O=C(Cc1nc(N2CCOCC2)cc(=O)[nH]1)Nc1ccc(F)c(OC(F)(F)F)c1 [Example 54, N-[4-fluoro-3-(trifluoromethoxy)phenyl]-2-[4-(morpholin-4-yl)-6-oxo-1,6-dihydropyrimidin-2-yl]acetamide] |
| 5.00 |  | O=C(Cc1nc(N2CCOCC2)cc(=O)[nH]1)Nc1cccc(OCCO)c1 [Example 55, N-[3-(2-hydroxyethoxy)phenyl]-2-[4-(morpholin-4-yl)-6-oxo-1,6-dihydropyrimidin-2-yl]acetamide] |
| 6.86 |  | O=C(Cc1nc(N2CCOCC2)cc(=O)[nH]1)Nc1cccc(I)c1 [Example 56, N-(3-iodophenyl)-2-[4-(morpholin-4-yl)-6-oxo-1,6-dihydropyrimidin-2-yl]acetamide] |
| 5.23 |  | COC(=O)c1cc(NC(=O)Cc2nc(N3CCOCC3)cc(=O)[nH]2)ccc1F [Example 57, methyl 2-fluoro-5-({[4-(morpholin-4-yl)-6-oxo-1,6-dihydropyrimidin-2-yl]acetyl}amino)benzoate] |
| 6.28 |  | O=C(Cc1nc(N2CCOCC2)cc(=O)[nH]1)N1CCOc2ccccc21 [Example 62, 2-[2-(2,3-dihydro-4H-1,4-benzoxazin-4-yl)-2-oxoethyl]-6-(morpholin-4-yl)pyrimidin-4(3H)-one] |
| 5.21 |  | O=C(Cc1nc(N2CCOCC2)cc(=O)[nH]1)Nc1ccc(F)c([N+](=O)[O-])c1 [Example 63, N-(4-fluoro-3-nitrophenyl)-2-[4-(morpholin-4-yl)-6-oxo-1,6-dihydropyrimidin-2-yl]acetamide] |
| 5.19 |  | O=C(Cc1nc(N2CCOCC2)cc(=O)[nH]1)Nc1cc(F)ccc1O [Example 65, N-(5-fluoro-2-hydroxyphenyl)-2-[4-(morpholin-4-yl)-6-oxo-1,6-dihydropyrimidin-2-yl]acetamide] |
| 5.66 |  | Cn1c(CC(=O)Nc2ccc(F)cc2)nc(N2CCOCC2)cc1=O [Example 67, N-(4-fluorophenyl)-2-[1-methyl-4-(morpholin-4-yl)-6-oxo-1,6-dihydropyrimidin-2-yl]acetamide] |
